Experiments:
[1] = test system: monoclonal antibody specific for methamphetamine; assay: Microparticle agglutination immunoassay with conjugate (12) and methamphetamine antibody-coated particles, percent cross-reactivity; type: binding; settings: methamphetamine antibody with conjugate (12)
[2] = test system: monoclonal antibody NEAMP 48.2; assay: Microparticle agglutination immunoassay with conjugate (12) and N-ethylamphetamine antibody-coated particles, percent cross-reactivity; type: binding; settings: NEAMP 48.2 antibody with conjugate (12)
Procedure: The conjugate reagent was prepared as described in Example 16.
An antibody-coated microparticle was prepared as described in Example 16 using monoclonal antibody NEAMP 48.2 described in U.S. 2004/0077021. A microparticle reagent was then prepared as described in Example 16.
The assay was carried out on a Roche/Hitachi 917 analyzer as described in Example 16.
Percent cross-reactivity was determined in an ammunoassay. A standard curve was established using known amounts of the target analyte methylenedioxyethylamphetamine (MDEA). Known amounts of various amphetamine-related drugs were to be analyzed as samples in the immunoassay, and apparent concentrations of these drugs were generated from the standard curve. Apparent concentration of the drug, divided by actual concentration and multiplied by 100, is the percent cross-reactivity of this drug.

Row | Compound | Cross-reactivity [1] | Cross-reactivity [2]
1 | CCC(Cc1ccc2c(c1)OCO2)NC (centres unmarked) [MBDB, 3,4-methylenedioxyphenyl-N-methylbutanamine] | good cross-reactivity | 
2 | CCNC(C)Cc1ccc2c(c1)OCO2 (centres unmarked) [MDEA, 3,4-methylenedioxy-N-ethylamphetamine] |  | good cross-reactivity
3 | CNC(C)Cc1ccc2c(c1)OCO2 (centres unmarked) [MDMA, 3,4-methylenedioxy-N-methylamphetamine] | good cross-reactivity | 
4 | CC(C)(N)Cc1ccccc1 [Phentermine] |  | essentially none
5 | NCCc1ccc(O)cc1 [Tyramine] |  | essentially none
6 | CN[C@@H](C)Cc1ccccc1 [d-Methamphetamine] | good cross-reactivity | 
7 | CN[C@@H](C)[C@@H](O)c1ccccc1 [d-pseudoephedrine] |  | essentially none
8 | CN[C@@H](C)[C@H](O)c1ccccc1 [l-ephedrine] |  | essentially none
